We go through one sequence from patent US9371364B2, “Dual-targeted therapeutic peptide for nasopharyngeal carcinoma, nanoparticles carrying same and uses thereof” (HUAZHONG UNIVERSITY OF SCIENCE AND TECHNOLOGY, priority 2012, dated 2016).

This assay relates to nasopharyngeal carcinoma cells (5-8 F, SUNE-1, HONE-1) versus other cancer cells. As to the kind of experiment: Octa-FNP fluorescent nano-probe screening of tumor cells (laser confocal imaging, FACS). Type of assay: cell-based. The following applies: 3 h incubation, FIG. 1. The method, then:
In this example, a peptide octavalent fluorescent nanoprobe based on tetramer far-red fluorescent protein was prepared by using a method for constructing a peptide fluorescent probe having a multivalent effect and a nanosized effect invented in the previous research. The probe was used to detect and screen different types of tumor cell lines, in order to screen and identify the tumor-targeting property of the peptide, […] (SEQ ID NO: 3).

Regarding “LTVSPWYLTVSPWY (a targeted therapeutic peptide for nasopharyngeal carcinoma)”, the “induction of tumor cell death” value is recorded as “can effectively induce the death of tumor cells” and the “tumor-targeting property of the peptide” value is on record as “excellent tumor-targeting property to nasopharyngeal carcinoma cells”.
